Measured values reported in patent US12433860B2, “Treatment of multiple sclerosis comprising DHODH inhibitors” (Immunic AG, priority 2021, dated 2025).
Where a name gives a salt, the structure may show the parent alone.

Tested on: patients with relapsing-remitting multiple sclerosis
Test: EMPhASIS Cohort 1: safety and tolerability
Settings: for proportion of patients with at least one treatment-emergent adverse event: 24 weeks, placebo 44%; for patients who discontinued the study treatment prematurely: placebo 7%
Procedure: Adverse events were assessed at screening, baseline, day 7, and weeks 6, 12, 18, and 24 and all unscheduled clinic visits. Routine clinical chemistries, haematology, liver function tests, and urinalysis were collected at baseline, day 7, and weeks 6, 12, 18, and 24. Vital signs and electrocardiogramere conducted at screening and regularly scheduled intervals. Adverse events of special interest included: red blood cells in urine, haematuria, and retroperitoneal colicky pain with suspected or confirmed nephrolithiasis.
The intention-to-treat population was defined as all randomized patients who received at least one dose of placebo or vidofludimus calcium and were analyzed by the groups to which they were randomized. The safety population included all randomized patients who received at least one dose of placebo or vidofludimus calcium and was analyzed by the treatment assigned. The per-protocol population was defined as all randomized patients receiving at least one dose of placebo or vidofludimus calcium and no violations of major protocol criteria during treatment. The modified intention-to-treat population was defined as all randomized patients receiving at least one dose of placebo or vidofludimus calcium and having all MRI scans available for analysis.

Compound: COc1cccc(-c2ccc(NC(=O)C3=C(C(=O)O)CCC3)c(F)c2)c1 [vidofludimus calcium, 1-cyclopentene-1-carboxylic acid, 2-(((3-fluoro-3′-methoxy(1,1′-biphenyl)-4-yl)amino)carbonyl)-, calcium salt (2:1)]
- patients experiencing serious adverse events (30 mg group, considered unrelated to treatment): 2 patients
- proportion of patients with at least one treatment-emergent adverse event (30 mg): 45%
- patients who discontinued the study treatment prematurely (30 mg): 3%
- patients who met hepatotoxicity stopping rules (45 mg group): two
- proportion of patients with at least one treatment-emergent adverse event (45 mg): 41%
- patients who discontinued the study treatment prematurely (45 mg): 6%
- Serious adverse events (across treatment groups): 0-3%
- Renal treatment-emergent events, patients (any dose, placebo 1%): 2%
- Hepatic treatment-emergent adverse events, patients (any dose, placebo 4%): 4%
- Adverse events of special interest, patients (any dose, ureterolithiasis, placebo 1%): 1%
- tolerability (both doses (30 mg and 45 mg)): well tolerated
- cardiovascular, haematological, infectious or malignancy-related adverse events (in vivo): No remarkable cardiovascular, haematological, infectious or malignancy-related adverse events
- changes in haematologic laboratory values (neutrophil, lymphocyte, leukocyte count) (in vivo): No changes
- changes in serum uric acid (over 24 weeks, any treatment group): No marked changes
- discontinuations attributable to treatment-emergent adverse events (vidofludimus calcium groups, placebo n=3): 2 patients
- Alopecia, fatigue, rash, and cystitis treatment-emergent adverse events not recorded in placebo-treated patients (vidofludimus calcium-treated patients): 1-4%
